From patent publication US20050014706A1, “Method of treating tuberculosis” (priority 2003, published 2005)
≈ marks a conversion by molar mass, not a printed value.

Tested on: M. tuberculosis H37Rv
Test: MIC vs. M. tuberculosis H37Rv, microplate Alamar Blue assay (MABA)
Type: cell-based
Settings: Table 3, parallel-synthesis carbazate library products

CC[C@H]1OC(=O)[C@H](C)[C@@H](O[C@H]2CC(C)(OC)[C@@H](O)[C@H](C)O2)[C@H](C)[C@@H](O[C@@H]2O[C@H](C)C[C@H](N(C)C)[C@H]2O)[C@](C)(OC)C[C@@H](C)C(=O)[C@H](C)[C@H]2N(NCCCc3ccccc3)C(=O)O[C@]12C (stereo partly shown) [A2′]
MIC: 10 µM (≈ 9.06 µg/mL)

CC[C@H]1OC(=O)[C@H](C)[C@@H](O[C@H]2CC(C)(OC)[C@@H](O)[C@H](C)O2)[C@H](C)[C@@H](O[C@@H]2O[C@H](C)C[C@H](N(C)C)[C@H]2O)[C@](C)(OC)C[C@@H](C)C(=O)[C@H](C)[C@H]2N(NC/C=C/c3ccccc3)C(=O)O[C@]12C (stereo partly shown) [A4′]
MIC: 7 µM (≈ 6.33 µg/mL)

CC[C@H]1OC(=O)[C@H](C)[C@@H](O[C@H]2CC(C)(OC)[C@@H](O)[C@H](C)O2)[C@H](C)[C@@H](O[C@@H]2O[C@H](C)C[C@H](N(C)C)[C@H]2O)[C@](C)(OC)C[C@@H](C)C(=O)[C@H](C)[C@H]2N(NC/C=C/c3cc(OC)c(O)c(OC)c3)C(=O)O[C@]12C (stereo partly shown) [A6′]
MIC: 10.2 µM (≈ 10 µg/mL)

CC[C@H]1OC(=O)[C@H](C)[C@@H](O[C@H]2CC(C)(OC)[C@@H](O)[C@H](C)O2)[C@H](C)[C@@H](O[C@@H]2O[C@H](C)C[C@H](N(C)C)[C@H]2O)[C@](C)(OC)C[C@@H](C)C(=O)[C@H](C)[C@H]2N(NCc3ccc([N+](=O)[O-])o3)C(=O)O[C@]12C (stereo partly shown) [A8′]
MIC: >9 µM

CC[C@H]1OC(=O)[C@H](C)[C@@H](O[C@H]2CC(C)(OC)[C@@H](O)[C@H](C)O2)[C@H](C)[C@@H](O[C@@H]2O[C@H](C)C[C@H](N(C)C)[C@H]2O)[C@](C)(OC)C[C@@H](C)C(=O)[C@H](C)[C@H]2N(NCc3ccoc3)C(=O)O[C@]12C (stereo partly shown) [A10′]
MIC: >7 µM

CC[C@H]1OC(=O)[C@H](C)[C@@H](O[C@H]2CC(C)(OC)[C@@H](O)[C@H](C)O2)[C@H](C)[C@@H](O[C@@H]2O[C@H](C)C[C@H](N(C)C)[C@H]2O)[C@](C)(OC)C[C@@H](C)C(=O)[C@H](C)[C@H]2N(NCc3cc(C(=O)OC)c(C)o3)C(=O)O[C@]12C (stereo partly shown) [A12′]
MIC: >12 µM

CCOC(=O)c1cc(-c2ccc(Cl)cc2)oc1CNN1C(=O)O[C@]2(C)[C@@H](CC)OC(=O)[C@H](C)[C@@H](O[C@H]3CC(C)(OC)[C@@H](O)[C@H](C)O3)[C@H](C)[C@@H](O[C@@H]3O[C@H](C)C[C@H](N(C)C)[C@H]3O)[C@](C)(OC)C[C@@H](C)C(=O)[C@H](C)[C@@H]12 (stereo partly shown) [B1′]
MIC: >18 µM

CC[C@H]1OC(=O)[C@H](C)[C@@H](O[C@H]2CC(C)(OC)[C@@H](O)[C@H](C)O2)[C@H](C)[C@@H](O[C@@H]2O[C@H](C)C[C@H](N(C)C)[C@H]2O)[C@](C)(OC)C[C@@H](C)C(=O)[C@H](C)[C@H]2N(NCc3nccn3C)C(=O)O[C@]12C (stereo partly shown) [B3′]
MIC: >18 µM

CC[C@H]1OC(=O)[C@H](C)[C@@H](O[C@H]2CC(C)(OC)[C@@H](O)[C@H](C)O2)[C@H](C)[C@@H](O[C@@H]2O[C@H](C)C[C@H](N(C)C)[C@H]2O)[C@](C)(OC)C[C@@H](C)C(=O)[C@H](C)[C@H]2N(NCc3cncn3C)C(=O)O[C@]12C (stereo partly shown) [B5′]
MIC: >27 µM

CCCCc1nc(CNN2C(=O)O[C@]3(C)[C@@H](CC)OC(=O)[C@H](C)[C@@H](O[C@H]4CC(C)(OC)[C@@H](O)[C@H](C)O4)[C@H](C)[C@@H](O[C@@H]4O[C@H](C)C[C@H](N(C)C)[C@H]4O)[C@](C)(OC)C[C@@H](C)C(=O)[C@H](C)[C@@H]23)c(Cl)[nH]1 (stereo partly shown) [B7′]
MIC: >19 µM

CC[C@H]1OC(=O)[C@H](C)[C@@H](O[C@H]2CC(C)(OC)[C@@H](O)[C@H](C)O2)[C@H](C)[C@@H](O[C@@H]2O[C@H](C)C[C@H](N(C)C)[C@H]2O)[C@](C)(OC)C[C@@H](C)C(=O)[C@H](C)[C@H]2N(NCc3c(C)[nH]c4ccc([N+](=O)[O-])cc34)C(=O)O[C@]12C (stereo partly shown) [B11′]
MIC: >22 µM

CC[C@H]1OC(=O)[C@H](C)[C@@H](O[C@H]2CC(C)(OC)[C@@H](O)[C@H](C)O2)[C@H](C)[C@@H](O[C@@H]2O[C@H](C)C[C@H](N(C)C)[C@H]2O)[C@](C)(OC)C[C@@H](C)C(=O)[C@H](C)[C@H]2N(NCc3cn(Cc4ccccc4)c4ccccc34)C(=O)O[C@]12C (stereo partly shown) [C2′]
MIC: 7 µM (≈ 7.05 µg/mL)

CC[C@H]1OC(=O)[C@H](C)[C@@H](O[C@H]2CC(C)(OC)[C@@H](O)[C@H](C)O2)[C@H](C)[C@@H](O[C@@H]2O[C@H](C)C[C@H](N(C)C)[C@H]2O)[C@](C)(OC)C[C@@H](C)C(=O)[C@H](C)[C@H]2N(NCc3cn(S(=O)(=O)c4ccc(C)cc4)c4ccccc34)C(=O)O[C@]12C (stereo partly shown) [C4′]
MIC: 11 µM (≈ 11.8 µg/mL)

CC[C@H]1OC(=O)[C@H](C)[C@@H](O[C@H]2CC(C)(OC)[C@@H](O)[C@H](C)O2)[C@H](C)[C@@H](O[C@@H]2O[C@H](C)C[C@H](N(C)C)[C@H]2O)[C@](C)(OC)C[C@@H](C)C(=O)[C@H](C)[C@H]2N(NCc3c(C)noc3C)C(=O)O[C@]12C (stereo partly shown) [C6′]
MIC: >17 µM

CC[C@H]1OC(=O)[C@H](C)[C@@H](O[C@H]2CC(C)(OC)[C@@H](O)[C@H](C)O2)[C@H](C)[C@@H](O[C@@H]2O[C@H](C)C[C@H](N(C)C)[C@H]2O)[C@](C)(OC)C[C@@H](C)C(=O)[C@H](C)[C@H]2N(/N=C/c3cc(-c4cccs4)on3)C(=O)O[C@]12C (stereo partly shown) [C8′]
MIC: ?9 μM

CC[C@H]1OC(=O)[C@H](C)[C@@H](O[C@H]2CC(C)(OC)[C@@H](O)[C@H](C)O2)[C@H](C)[C@@H](O[C@@H]2O[C@H](C)C[C@H](N(C)C)[C@H]2O)[C@](C)(OC)C[C@@H](C)C(=O)[C@H](C)[C@H]2N(NCc3c(-c4ccccc4)noc3C)C(=O)O[C@]12C (stereo partly shown) [C10′]
MIC: 12 µM (≈ 11.5 µg/mL)

CC[C@H]1OC(=O)[C@H](C)[C@@H](O[C@H]2CC(C)(OC)[C@@H](O)[C@H](C)O2)[C@H](C)[C@@H](O[C@@H]2O[C@H](C)C[C@H](N(C)C)[C@H]2O)[C@](C)(OC)C[C@@H](C)C(=O)[C@H](C)[C@H]2N(/N=C/c3c(C)noc3-c3ccccc3)C(=O)O[C@]12C (stereo partly shown) [C12′]
MIC: 9 µM (≈ 8.61 µg/mL)

CC[C@H]1OC(=O)[C@H](C)[C@@H](O[C@H]2CC(C)(OC)[C@@H](O)[C@H](C)O2)[C@H](C)[C@@H](O[C@@H]2O[C@H](C)C[C@H](N(C)C)[C@H]2O)[C@](C)(OC)C[C@@H](C)C(=O)[C@H](C)[C@H]2N(NCc3[nH]ncc3Br)C(=O)O[C@]12C (stereo partly shown) [D1′]
MIC: 23 µM (≈ 21.8 µg/mL)

CC[C@H]1OC(=O)[C@H](C)[C@@H](O[C@H]2CC(C)(OC)[C@@H](O)[C@H](C)O2)[C@H](C)[C@@H](O[C@@H]2O[C@H](C)C[C@H](N(C)C)[C@H]2O)[C@](C)(OC)C[C@@H](C)C(=O)[C@H](C)[C@H]2N(NCc3c(C(F)(F)F)nn(C)c3Cl)C(=O)O[C@]12C (stereo partly shown) [D3′]
MIC: 20 µM (≈ 19.7 µg/mL)

CC[C@H]1OC(=O)[C@H](C)[C@@H](O[C@H]2CC(C)(OC)[C@@H](O)[C@H](C)O2)[C@H](C)[C@@H](O[C@@H]2O[C@H](C)C[C@H](N(C)C)[C@H]2O)[C@](C)(OC)C[C@@H](C)C(=O)[C@H](C)[C@H]2N(NCc3c[nH]nc3-c3ccc(F)cc3)C(=O)O[C@]12C (stereo partly shown) [D5′]
MIC: 25 µM (≈ 24.1 µg/mL)

CC[C@H]1OC(=O)[C@H](C)[C@@H](O[C@H]2CC(C)(OC)[C@@H](O)[C@H](C)O2)[C@H](C)[C@@H](O[C@@H]2O[C@H](C)C[C@H](N(C)C)[C@H]2O)[C@](C)(OC)C[C@@H](C)C(=O)[C@H](C)[C@H]2N(NCc3cnn(-c4ccc(F)cc4)c3C)C(=O)O[C@]12C (stereo partly shown) [D7′]
MIC: 13 µM (≈ 12.7 µg/mL)

CC[C@H]1OC(=O)[C@H](C)[C@@H](O[C@H]2CC(C)(OC)[C@@H](O)[C@H](C)O2)[C@H](C)[C@@H](O[C@@H]2O[C@H](C)C[C@H](N(C)C)[C@H]2O)[C@](C)(OC)C[C@@H](C)C(=O)[C@H](C)[C@H]2N(NCc3cccnc3)C(=O)O[C@]12C (stereo partly shown) [D9′]
MIC: >15 µM

CC[C@H]1OC(=O)[C@H](C)[C@@H](O[C@H]2CC(C)(OC)[C@@H](O)[C@H](C)O2)[C@H](C)[C@@H](O[C@@H]2O[C@H](C)C[C@H](N(C)C)[C@H]2O)[C@](C)(OC)C[C@@H](C)C(=O)[C@H](C)[C@H]2N(NCc3ccnc4ccccc34)C(=O)O[C@]12C (stereo partly shown) [D11′]
MIC: 16 µM (≈ 14.9 µg/mL)

CC[C@H]1OC(=O)[C@H](C)[C@@H](O[C@H]2CC(C)(OC)[C@@H](O)[C@H](C)O2)[C@H](C)[C@@H](O[C@@H]2O[C@H](C)C[C@H](N(C)C)[C@H]2O)[C@](C)(OC)C[C@@H](C)C(=O)[C@H](C)[C@H]2N(NCc3cnccc3NC(=O)C(C)(C)C)C(=O)O[C@]12C (stereo partly shown) [E2′]
MIC: >27 µM

CC[C@H]1OC(=O)[C@H](C)[C@@H](O[C@H]2CC(C)(OC)[C@@H](O)[C@H](C)O2)[C@H](C)[C@@H](O[C@@H]2O[C@H](C)C[C@H](N(C)C)[C@H]2O)[C@](C)(OC)C[C@@H](C)C(=O)[C@H](C)[C@H]2N(NCc3cccnc3NC(=O)C(C)(C)C)C(=O)O[C@]12C (stereo partly shown) [E4′]
MIC: >27 µM

CC[C@H]1OC(=O)[C@H](C)[C@@H](O[C@H]2CC(C)(OC)[C@@H](O)[C@H](C)O2)[C@H](C)[C@@H](O[C@@H]2O[C@H](C)C[C@H](N(C)C)[C@H]2O)[C@](C)(OC)C[C@@H](C)C(=O)[C@H](C)[C@H]2N(/N=C/c3cnc(-c4ccccc4)nc3C)C(=O)O[C@]12C (stereo partly shown) [E6′]
MIC: 5 µM (≈ 4.84 µg/mL)

CC[C@H]1OC(=O)[C@H](C)[C@@H](O[C@H]2CC(C)(OC)[C@@H](O)[C@H](C)O2)[C@H](C)[C@@H](O[C@@H]2O[C@H](C)C[C@H](N(C)C)[C@H]2O)[C@](C)(OC)C[C@@H](C)C(=O)[C@H](C)[C@H]2N(NCc3c[nH]c(=O)[nH]c3=O)C(=O)O[C@]12C (stereo partly shown) [E8′]
MIC: >20 µM

CC[C@H]1OC(=O)[C@H](C)[C@@H](O[C@H]2CC(C)(OC)[C@@H](O)[C@H](C)O2)[C@H](C)[C@@H](O[C@@H]2O[C@H](C)C[C@H](N(C)C)[C@H]2O)[C@](C)(OC)C[C@@H](C)C(=O)[C@H](C)[C@H]2N(NCc3cccn3CCC#N)C(=O)O[C@]12C (stereo partly shown) [E10′]
MIC: 20 µM (≈ 18.4 µg/mL)

CC[C@H]1OC(=O)[C@H](C)[C@@H](O[C@H]2CC(C)(OC)[C@@H](O)[C@H](C)O2)[C@H](C)[C@@H](O[C@@H]2O[C@H](C)C[C@H](N(C)C)[C@H]2O)[C@](C)(OC)C[C@@H](C)C(=O)[C@H](C)[C@H]2N(NCc3cccn3-c3ccc(Cl)cc3)C(=O)O[C@]12C (stereo partly shown) [E12′]
MIC: 3.4 µM (≈ 3.32 µg/mL)

CC[C@H]1OC(=O)[C@H](C)[C@@H](O[C@H]2CC(C)(OC)[C@@H](O)[C@H](C)O2)[C@H](C)[C@@H](O[C@@H]2O[C@H](C)C[C@H](N(C)C)[C@H]2O)[C@](C)(OC)C[C@@H](C)C(=O)[C@H](C)[C@H]2N(NCc3cccn3-c3ccc(C(F)(F)F)cc3)C(=O)O[C@]12C (stereo partly shown) [F1′]
MIC: 17.6 µM (≈ 17.8 µg/mL)

CC[C@H]1OC(=O)[C@H](C)[C@@H](O[C@H]2CC(C)(OC)[C@@H](O)[C@H](C)O2)[C@H](C)[C@@H](O[C@@H]2O[C@H](C)C[C@H](N(C)C)[C@H]2O)[C@](C)(OC)C[C@@H](C)C(=O)[C@H](C)[C@H]2N(NCc3sc(C)nc3C)C(=O)O[C@]12C (stereo partly shown) [F5′]
MIC: >19 µM
